# Laboratory results taken from patent US20130129675A1, “INTERFERON THERAPIES IN COMBINATION WITH BLOCKADE OF STAT3 ACTIVATION” (BOARD OF REGENTS, THE UNIVERSITY OF TEXAS SYSTEM, priority 2009, published 2013).
# What was measured:
# [1] = system: B16 target cells (NK1.1+CD3− NK effector cells); assay: NK cell cytotoxicity assay against melanoma cells; assay type: cell-based, mice; details: WP1193 2 μM, IFN-α 20 ng/ml, 48 h, control 8.8
# Protocol: Splenocytes were prepared as described above. NK1.1+CD3− NK effector cells or CD3+CD8+ T effector cells were sorted from splenocytes on a FACSAria Cell Sorter (BD Biosciences) with FITC-conjugated anti-mouse NK1.1 (eBioscience), PE-conjugated anti-CD3, and allophycocyanin (APC)-conjugated anti-CD8 antibodies (Miltenyi Biotec, Auburn, Calif.). B16 target cells were prepared as described above. The ratio of NK1.1+CD3− NK effector cells or CD8+ T effector cells to B16 target cells was 10:1 and 5:1, respectively. In the presence of NK1.1+CD3− NK cells or CD8+ T cells, treatment groups consisted of B16 target cells alone; B16 cells with 2 μM of WP1193; B16 cells with 20 ng/ml of IFN-α; B16 cells with 2 µM of WP1193 and 20 ng/ml of IFN-α. After 48 hours of incubation, the CFSE-labeled B16 melanoma cells were removed from the plates with trypsin and analyzed by FACS. Then, B16 cells were stained with PI (BD Biosciences) to distinguish viable cells from nonviable cells. B16 cells that were stained with CFSE and PI were considered nonviable. Flow cytometric acquisition of the B16 target cells was performed with a FACSCalibur flow cytometer (BD Biosciences), and data analysis was performed using FlowJo software (TreeStar). […]
# [2] = system: STAT3 in HaCaT keratinocytes; assay: pSTAT3 level in HaCaT keratinocytes (MSD chemiluminescent detection); assay type: cell-based, human
# Protocol: Prior to experiments, the DMEM medium was changed to KGM-SFM containing rEGF and bovine pituitary extract for 12 hours, and the cells then exposed to various stimuli for 30 minutes. Cell lysates were extracted in IP lysis buffer were diluted in MSD extraction buffer and 25 uL of the cell lysate containing 10 ug protein was used in the analysis via chemiluminescent detection (MSD Technology). To test for inhibition by WP1220 (WP), cells were pre-incubated with WP1220 prior to the addition of IFN α.
# [3] = system: NK1.1+ NK cells from splenocytes; assay: NK cell activating receptors (flow cytometry); assay type: cell-based, mice; details: WP1193 2 μM, IFN-α 20 ng/ml, 24 hours (FIGS. 6C and 6D)
# Protocol: Spleens from 4- to 6-week-old female mice were harvested and disassociated into a single-cell suspension as described above. Splenocytes were seeded at a density of 4×10^6 cells/well in 24-well culture plates and cultured with the RPMI 1640 medium in absence or presence of WP1193 (2 μM) and/or INF-α (20 ng/ml) for 24 hours. Afterwards, the cells were harvested and washed twice in PBS with 5% FCS, resuspended in staining buffer and labeled with FITC- or PE-conjugated anti-mouse NK1.1 (eBioscience, San Diego, Calif.) to identify the NK population. […] Following incubation, the cells were washed twice with FACS buffer and then analyzed with a BD FACSCalibur with gates set for viable splenocytes.
# Because we observed NK and CD8+ T cell-mediated anti-tumor cytotoxicity were enhanced with combinational therapy, to ascertain if either IFN-α, WP1193 or both were augmenting the expression of MHC or NK activating receptors or their ligands, splenocytes and B16 cells were treated with RPMI 1640 medium (control), WP1193 (2 μM), IFN-α (20 ng/ml), or IFN-α (20 ng/ml)+WP1193 (2 μM) for 24 hours. The NK-activating ligands (Rae-1, H60 and CD155) and MHC (I and II) on B16 cells and the NK-activating receptors (NKG2D, KLRD1, NKp46 and DNAM-1) on NK1.1+ NK cells were analyzed by flow cytometric analysis.
# [4] = system: intracerebral B16 melanoma / LMD; assay: Etiology of death (LMD or tumor progression) in intracerebral B16 model; assay type: in vivo, C57BL/6J mice; details: for animals with LMD at death: autopsy at treatment failure, control 75%
# From the text: Both the control group (n=8) and in those treated with a sub-therapeutic dose of WP1193 (n=9) had macroscopic evidence of LMD, 75% and 67%, respectively, (Data not shown). In contrast, in those mice treated with IFN-α (n=6) or the combination of IFN-α and WP1193 (n=4), only 17% in the former and none of the animals treated with the combination died of LMD (FIG. 5). As would be expected, in a sub-analysis within each treatment group, mice that developed LMD died sooner than did those that died of tumor. Specifically, in the control group, median survival was 16.7±0.7 days in those mice that developed LMD and 18.5±1.5 days in those that died of tumor. Furthermore, in the sub-therapeutic WP1193 group, median survival was 17.7±0.3 days in mice that developed LMD and 20±2.1 days in those that died of tumor. In contrast, within the IFN-α treatment group, the median survival of mice with progressive tumor was 25.8±2.5 days, which was further increased to 29.7±5.5 days in the combination treatment group. Within individual treatment groups there was insufficient power to draw statistically meaningful conclusions; however when we assessed all mice who died of LMD, the median survival was 16.9±0.4 days compared with 24.7±2 days for mice dying of tumor progression (P=0.0006), indicating this model system conforms to the negative prognostic influence of LMD observed in human patients.
# [5] = sub-analysis within treatment group
Molecule,% of B16 Killimg [1],STAT3 activation in keratinocytes [2],"Relative level of pSAT3 ([2]; HaCaT cells, stimuli for 30 minutes)","pSTAT3 stimulation (Table E8) ([2]; SFM + IFN α, no inhibitor)","NKG2D, KLRD1, NKp46 and DNAM-1 on NK cells [3]",animals with LMD at death [4],"median survival in mice that died of tumor [4, 5]","median survival in mice that developed LMD [4, 5]"
IFN-α,12.5%,potently induce STAT3 activation,+++++ (+++++=400-500 fold),"+++++ (+++++=10,000-6,000)",did not appear to be up-regulated,17%,25.8 ± 2.5 days,–
"N#C/C(=C\c1cccc(Br)n1)C(=O)N[C@H](c1ccccc1)C1CC1 [WP1193, (S,E)-3-(6-bromopyridin-2-yl)-2-cyano-N-(cyclopropyl(phenyl)methyl)acrylamide]",10.9%,–,–,–,did not appear to be up-regulated,67%,20 ± 2.1 days,17.7 ± 0.3 days
